{"source": "patent US20240182453A1", "about": "“NOVEL SUBSTITUTED PYRAZINE-CARBOXAMIDE DERIVATIVES” (Boehringer Ingelheim International GmbH, priority 2022, published 2024)"}
{"target": "human metabotropic Glutamate 4 receptor (mGluR4) (Homo sapiens (Human), UniProt Q14833)", "sequence (Q14833 33-912)": "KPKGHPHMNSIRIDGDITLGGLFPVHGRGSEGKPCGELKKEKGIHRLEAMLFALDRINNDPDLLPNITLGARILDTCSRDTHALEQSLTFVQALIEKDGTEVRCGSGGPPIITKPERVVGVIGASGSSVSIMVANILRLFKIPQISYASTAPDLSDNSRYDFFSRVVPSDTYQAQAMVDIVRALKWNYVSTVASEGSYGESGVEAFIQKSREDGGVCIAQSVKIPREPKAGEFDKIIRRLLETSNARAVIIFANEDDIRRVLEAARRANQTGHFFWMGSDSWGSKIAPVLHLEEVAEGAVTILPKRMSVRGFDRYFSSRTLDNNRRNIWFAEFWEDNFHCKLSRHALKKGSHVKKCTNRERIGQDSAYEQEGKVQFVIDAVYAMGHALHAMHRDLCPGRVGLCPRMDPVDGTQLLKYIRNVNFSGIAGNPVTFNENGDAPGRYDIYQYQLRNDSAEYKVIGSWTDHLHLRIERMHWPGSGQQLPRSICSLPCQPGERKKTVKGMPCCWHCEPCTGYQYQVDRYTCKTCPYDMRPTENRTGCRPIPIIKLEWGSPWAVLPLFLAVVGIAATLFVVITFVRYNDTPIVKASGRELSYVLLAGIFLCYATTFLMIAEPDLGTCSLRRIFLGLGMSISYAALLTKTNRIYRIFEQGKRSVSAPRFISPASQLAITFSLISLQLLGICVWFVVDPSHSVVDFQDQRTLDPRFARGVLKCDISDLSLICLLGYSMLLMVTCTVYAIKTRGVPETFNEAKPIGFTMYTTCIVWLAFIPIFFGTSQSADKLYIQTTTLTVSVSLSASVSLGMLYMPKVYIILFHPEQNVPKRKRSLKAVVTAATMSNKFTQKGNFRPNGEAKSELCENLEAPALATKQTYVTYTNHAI", "test": "Assay A: in vitro testing of mGluR4 potency (glutamate-induced cAMP lowering, HTRF cAMP)", "assay_type": "cell-based", "conditions": "HEK293 cells overexpressing human mGluR4; 10 uM L-glutamic acid, 1 uM forskolin; compounds of the present invention", "protocol": "A. In Vitro Testing of mGluR4 Potency\nThe in vitro activity of the compounds according to the invention may be investigated as follows:\nThe HEK293 cell overexpressing the human metabotropic Glutamate 4 receptor are thawed at 37° C. and immediately diluted with cell culture medium. After centrifugation, the cell pellet is re-suspended in medium and then distributed from a stirred spinner flask into the wells of the assay plate. The plates are incubated for one hour at room temperature before they are incubated for 24 hours at 37° C./5% CO2. After washing the cells in the plate three times with 80 uL HBSS/HEPES buffer (10 uL buffer remained in the wells after washing), 5 uL per well of compounds diluted in HBSS/HEPES buffer containing 0.2% BSA (final concentration: 0.1%) and 1 mM IBMX (final concentration: 0.5 mM) are added to the wells of the assay plate. Thereafter 5 uL per well of L-Glutamic acid (final concentration: 10 uM), forskolin (final concentration: 1 uM) and 1 mM IBMX (final concentration: 0.5 mM) dissolved in HBSS/HEPES buffer containing 0.2% BSA (final concentration: 0.1%) are added to the assay plate (final DMSO concentration: 1%). Several wells of the assay plate are used either for the positive and the negative controls or for the cAMP standard curve. The assay plate is incubated for 30 minutes at room temperature. Then 5 ul per well of Anti-cAMP-Antibody-d2 solution and 5 ul per well of cAMP-Europium Cryptate dilution are added to all wells of the plate and the plate is incubated another 60 minutes light protected at room temperature. The emission at 615 nm and 665 nm (Excitation wavelength: 320 nm) are measured on the EnVision™ reader (Perkin Elmer). The ratio between the emission at 665 nm and 615 is calculated by the reader. The whole assay is performed in the dark or under green light.\nThe cAMP standard is prepared by diluting the cAMP stock solution with HBSS/Hepes buffer: 5 μl/well of the cAMP dilutions (in HBSS/Hepes buffer containing 1 mM IBMX and 0.2% BSA—final concentration: 0.5 mM IBMX and 0.1% BSA) are added to 10 ul/well HBSS/Hepes buffer plus 5 ul/well 4% DMSO in HBSS/Hepes containing 0.2% BSA (final DMSO concentration: 1%—like in the wells containing compounds) in the wells of the assay plate. The final cAMP concentrations in the assay plate are: 0, 0.17, 0.69, 2.78, 11.1, 44.5, 178, and 712 nM (two wells/cAMP concentration).\nEach assay microtiter plate contained also wells with vehicle controls instead of compound as controls for L-Glutamic acid induced signal (negative control; 100% CTL; 10 uM L-Glutamic acid+1 uM forskolin+0.5 mM IBMX+1% DMSO) and wells with vehicle controls without L-Glutamic acid as controls for non-specific changes in signal (positive control; 0% CTL; 0 uM L-Glutamic acid+1 uM forskolin+0.5 mM IBMX+1% DMSO).\nThe analysis of the data is performed by the calculation the ratio between the emission at 665 nm and the emission at 615 nm (Em665/Em615 ratio). Thereafter the signals of the compounds are normalized using the positive and negative controls by the following formula:\nPoC=100×((Signal Sample−Positive Control)/(Negative Control−Positive Control))", "units": {"IC50": "µM"}}
{"smiles": "CCn1c([C@@H](NC(=O)c2cnc(C)cn2)C(C)(C)O)nc2cc(F)c(F)cc21", "note": "[Example 50, N-[(1R)-1-(1-ethyl-5,6-difluoro-1H-1,3-benzodiazol-2-yl)-2-hydroxy-2-methylpropyl]-5-methylpyrazine-2-carboxamide]", "IC50": 0.024}
{"smiles": "CCn1c([C@@H](NC(=O)c2cnc(C)cn2)C2CC2)nc2cc(OC(F)F)ccc21", "note": "[Example 49, N-[(S)-cyclopropyl[5-(difluoromethoxy)-1-ethyl-1H-1,3-benzodiazol-2-yl]methyl]-5-methylpyrazine-2-carboxamide]", "IC50": 0.007}
{"smiles": "CO[C@H](C)[C@H](NC(=O)c1cnc(C(F)F)cn1)c1nc2cc(OC(F)F)ccc2n1C", "note": "[Example 80, N-[(1R,2R)-1-[5-(difluoromethoxy)-1-methyl-1H-1,3-benzodiazol-2-yl]-2-methoxypropyl]-5-(difluoromethyl)pyrazine-2-carboxamide]", "IC50": 0.029}
{"smiles": "CCn1c([C@@H](NC(=O)c2cnc(C(F)F)cn2)C(C)(C)O)nc2cc(F)c(F)cc21", "note": "[Example 57, 5-(difluoromethyl)-N-[(1R)-1-(1-ethyl-5,6-difluoro-1H-1,3-benzodiazol-2-y1)-2-hydroxy-2-methylpropyl]pyrazine-2-carboxamide]", "IC50": 0.019}
{"smiles": "Cc1cnc(C(=O)NC(c2nc3cc(C(F)(F)F)ccc3n2CC(F)F)C2CCOC2)cn1", "note": "(single isomer, unassigned) [Example 141, N-{[1-(2,2-difluoroethyl)-5-(trifluoromethyl)-1H-1,3-benzodiazol-2-yl](oxolan-3-yl)methyl}-5-methylpyrazine-2-carboxamide]", "IC50": 0.031}
{"smiles": "COCCn1c([C@@H](NC(=O)c2cnc(C)cn2)[C@H]2CCOC2)nc2cc(C(F)(F)F)ccc21", "note": "[Example 87, N-[(S)-[1-(2-methoxyethyl)-5-(trifluoromethyl)-1H-1,3-benzodiazol-2-yl][(3R)-oxolan-3-yl]methyl]-5-methylpyrazine-2-carboxamide]", "IC50": 0.012}
{"smiles": "CCn1c(C(NC(=O)c2cnc(C)cn2)C2CCOC2)nc2cc(F)ccc21", "note": "(single isomer, unassigned) [Example 143, N-[(1-ethyl-5-fluoro-1H-1,3-benzodiazol-2-yl)(oxolan-3-yl)methyl]-5-methylpyrazine-2-carboxamide]", "IC50": 0.066}
{"smiles": "CCn1c(C(NC(=O)c2cnc(C)cn2)C2CCOC2)nc2ccc(C(F)(F)F)cc21", "note": "(single isomer, unassigned) [Example 147, N-{[1-ethyl-6-(trifluoromethyl)-1H-1,3-benzodiazol-2-yl](oxolan-3-yl)methyl}-5-methylpyrazine-2-carboxamide]", "IC50": 0.011}
{"smiles": "COCCn1c([C@@H](NC(=O)c2cnc(C)cn2)C2CC2)nc2cc(OC(F)F)c(F)cc21", "note": "[Example 67, N-[(S)-cyclopropyl[5-(difluoromethoxy)-6-fluoro-1-(2-methoxyethyl)-1H-1,3-benzodiazol-2-yl]methyl]-5-methylpyrazine-2-carboxamide]", "IC50": 0.01}
{"smiles": "Cn1c(C(NC(=O)c2cnc(C(F)F)cn2)C2CCCO2)nc2cc(OC(F)(F)F)ccc21", "note": "(centres unmarked) [Example 113-1, 5-(difluoromethyl)-N-{[1-methyl-5-(trifluoromethoxy)-1H-1,3-benzodiazol-2-yl](oxolan-2-yl)methyl}pyrazine-2-carboxamide]", "IC50": 0.045}
{"smiles": "CCn1c([C@@H](NC(=O)c2cnc(C)cn2)[C@]2(O)CCCOC2)nc2cc(F)ccc21", "note": "[Example 150, N-[(R)-(1-ethyl-5-fluoro-1H-1,3-benzodiazol-2-yl)[(3R)-3-hydroxyoxan-3-yl]methyl]-5-methylpyrazine-2-carboxamide]", "IC50": 0.014}
{"smiles": "Cc1cnc(C(=O)N[C@H](c2nc3cc(Cl)ccc3n2C)[C@@H]2CCCO2)cn1", "note": "[Example 68, N-[(R)-(5-chloro-1-methyl-1H-1,3-benzodiazol-2-yl)[(2S)-oxolan-2-yl]methyl]-5-methylpyrazine-2-carboxamide]", "IC50": 0.019}
{"smiles": "COCCn1c([C@@H](NC(=O)c2cnc(C)cn2)C2CC2)nc2cc(F)c(F)cc21", "note": "[Example 16, N-[(S)-cyclopropyl[5,6-difluoro-1-(2-methoxyethyl)-1H-1,3-benzodiazol-2-yl]methyl]-5-methylpyrazine-2-carboxamide]", "IC50": 0.005}
{"smiles": "CCn1c([C@@H](NC(=O)c2cnc(C(F)F)cn2)C2CC2)nc2cc(F)ccc21", "note": "[Example 3, N-[(S)-cyclopropyl(1-ethyl-5-fluoro-1H-1,3-benzodiazol-2-yl)methyl]-5-(difluoromethyl)pyrazine-2-carboxamide]", "IC50": 0.003}
{"smiles": "COCCn1c([C@@H](NC(=O)c2cnc(C)cn2)[C@H]2CCCOC2)nc2cc(C(F)(F)F)ccc21", "note": "[Example 103, N-[(S)-[1-(2-methoxyethyl)-5-(trifluoromethyl)-1H-1,3-benzodiazol-2-yl][(3R)-oxan-3-yl]methyl]-5-methylpyrazine-2-carboxamide]", "IC50": 0.008}
{"smiles": "CCn1c(C(NC(=O)c2cnc(C)cn2)C2CCOC2)nc2cc(Cl)ccc21", "note": "(single isomer, unassigned) [Example 161, N-[(5-chloro-1-ethyl-1H-1,3-benzodiazol-2-yl)(oxolan-3-yl)methyl]-5-methylpyrazine-2-carboxamide]", "IC50": 0.014}
{"smiles": "COCCn1c([C@@H](NC(=O)c2cnc(C(F)F)cn2)[C@H]2CCOC2)nc2cc(F)ccc21", "note": "[Example 48, 5-(difluoromethyl)-N-[(S)-[5-fluoro-1-(2-methoxyethyl)-1H-1,3-benzodiazol-2-yl][(3R)-oxolaN-3-yl]methyl]pyrazine-2-carboxamide]", "IC50": 0.021}
{"smiles": "O=C(N[C@H](c1nc2cc(F)ccc2n1CC(F)F)C1CC1)c1cnc(C(F)F)cn1", "note": "[Example 4, N-[(S)-cyclopropyl[1-(2,2-difluoroethyl)-5-fluoro-1H-1,3-benzodiazol-2-yl]methyl]-5-(difluoromethyl)pyrazine-2-carboxamide]", "IC50": 0.004}
{"smiles": "Cc1cnc(C(=O)N[C@H](c2nc3cc(Br)ccc3n2C)C2CC2)cn1", "note": "[Example 34, N-[(S)-(5-bromo-1-methyl-1H-1,3-benzodiazol-2-yl)(cyclopropyl)methyl]-5-methylpyrazine-2-carboxamide]", "IC50": 0.005}
{"smiles": "Cc1cnc(C(=O)N[C@H](c2nc3cc(C(F)(F)F)ccc3n2C)[C@H]2CCCO2)cn1", "note": "(single isomer, unassigned) [Example 75]", "IC50": 0.019}
{"smiles": "Cc1cnc(C(=O)N[C@H](c2nc3cc(OC(F)(F)F)ccc3n2C)C2CC2)cn1", "note": "[Example 74, N-[(S)-cyclopropyl[1-methyl-5-(trifluoromethoxy)-1H-1,3-benzodiazol-2-yl]methyl]-5-methylpyrazine-2-carboxamide]", "IC50": 0.006}
{"smiles": "Cc1cnc(C(=O)N[C@H](c2nc3c(C)c(C#N)ccc3n2C)C2CC2)cn1", "note": "[Example 45, N-[(S)-(5-cyano-1,4-dimethyl-1H-1,3-benzodiazol-2-yl)(cyclopropyl)methyl]-5-methylpyrazine-2-carboxamide]", "IC50": 0.026}
{"smiles": "Cc1cnc(C(=O)N[C@H](c2nc3cc(C(F)(F)F)ccc3n2C2CC2)C2CC2)cn1", "note": "[Example 116, N-[(S)-cyclopropyl[1-cyclopropyl-5-(trifluoromethyl)-1H-1,3-benzodiazol-2-yl]methyl]-5-methylpyrazine-2-carboxamide]", "IC50": 0.013}
{"smiles": "Cc1cnc(C(=O)N[C@H](c2nc3cc(C(F)(F)F)ccc3n2C)C2CC2)cn1", "note": "[Example 31, N-[(S)-cyclopropyl[1-methyl-5-(trifluoromethyl)-1H-1,3-benzodiazol-2-yl]methyl]-5-methylpyrazine-2-carboxamide]", "IC50": 0.006}
{"smiles": "COCCn1c([C@H](CC2CC2)NC(=O)c2cnc(C)cn2)nc2cc(F)ccc21", "note": "[Example 24, N-[(1S)-2-cyclopropyl-1-[5-fluoro-1-(2-methoxyethyl)-1H-1,3-benzodiazol-2-yl]ethyl]-5-methylpyrazine-2-carboxamide]", "IC50": 0.007}
{"smiles": "Cc1cnc(C(=O)N[C@H](c2nc3cc(OC(F)(F)F)ccc3n2C2CC2)C2CC2)cn1", "note": "[Example 115, N-[(S)-cyclopropyl[1-cyclopropyl-5-(trifluoromethoxy)-1H-1,3-benzodiazol-2-yl]methyl]-5-methylpyrazine-2-carboxamide]", "IC50": 0.009}
